Measurements: US20220033355A1, “CRYSTAL FORM A OF 2-(2, 5-DIOXOPYRROLIDIN-1YL) ETHYL METHYL FUMARATE, PREPARATION METHOD THEREFOR AND USE THEREOF” (SHENZHEN RENTAI PHARMATECH LTD., priority 2019, published 2022)
Where a name gives a salt, the structure may show the parent alone.

What was measured:
Format in all cases: physicochemical
[1] = High-temperature stability of the crystal form (XRPD comparison); conditions: 60° C.
Protocol: (§1) Method: Cu target Ka, voltage: 40 KV, current: 40 mA, test angle: 3-45°, scanning step: 0.02, exposure time: 0.2S, slit width of light pipe: 2 mm, Dtex detector.
(2) High-temperature stability: the test sample is placed at a temperature of 60° C. for 5 days and 10 days, respectively, to test the stability of the crystal form.
(2) High-temperature stability: by referring to the same method of high-temperature stability test for crystal A, the test sample is placed at a temperature of 60° C. for 5 days to test the stability of the crystal form, which is compared with XRPD pattern of the crystal form I on day 0.

[2] = Light stability of the crystal form (XRPD comparison); conditions: 25° C., 4500 Lux
Protocol: as §1
(1) Light stability: the test sample is placed in an environment having a temperature of 25° C. and a light condition of 4500 Lux for 5 days and 10 days, respectively, to test the stability of the crystal form.
(1) Light stability: by referring to the same method of light stability test for crystal A, the test sample is placed in an environment having a temperature of 25° C. and a light condition of 4500 Lux for 5 days to test the stability of the crystal form, which is compared with XRPD pattern of the crystal form I on day 0.

[3] = High-humidity stability 2 of the crystal form (XRPD comparison); conditions: 75% RH, 40° C.
Protocol: as §1
(4) High-humidity stability 2: the test sample is placed in an environment having a humidity of 75% RH and a temperature of 40° C. for 5 days and 10 days, respectively, to test the stability of the crystal form.
(4) High-humidity stability 2: by referring to the same method of high-humidity stability test 2 for crystal A, the test sample is placed in an environment having a humidity of 75% RH and a temperature of 40° C. for 5 days to test the stability of the crystal form, which are compared with XRPD pattern of the crystal form I on day 0.

[4] = High-humidity stability 1 of the crystal form (XRPD comparison); conditions: 92.5% RH, 25° C.
Protocol: as §1
(3) High-humidity stability 1: the test sample is placed in an environment having a humidity of 92.5% RH and a temperature of 25° C. for 5 days and 10 days, respectively, to test the stability of the crystal form.
(3) High-humidity stability 1: by referring to the same method of high-humidity stability test 1 for crystal A, the test sample is placed in an environment having a humidity of 92.5% RH and a temperature of 25° C. for 5 days to test the stability of the crystal form, which are compared with XRPD pattern of the crystal form I on day 0.

[5] = Dynamic vapor sorption (DVS) hygroscopicity study; conditions: 25° C., RH stepped up from RH 0 to RH 90% at RH 10% per step, 10 min per step, when RH 90% is completed
Protocol: Model: DVS intrinsic (SMS, British); Method: 25° C., relative humidity is stepped up at a rate of 10%, the judgment standard is change in moisture content is <0.02% over a 10-minute period. Dynamic vapor sorption (DVS) experiment are performed for the crystal form I of Example 1 and the crystal form A prepared in Example 2 to obtain DVS curves under the following conditions: the temperature is 25° C., the relative humidity (RH) is stepped up from RH 0 to RH 90% at a rate of RH 10% per step, with 10 min for each step to reach equilibrium.

[6] = 5 days, XRPD compared with day 0

Compound | high-temperature stability of the crystal form ([1]; 5 days and 10 days, XRPD) | light stability of the crystal form ([2]; 5 days and 10 days, XRPD) | high-humidity stability 2 of the crystal form ([3]; 5 days and 10 days, XRPD) | high-humidity stability 1 of the crystal form ([4]; 5 days and 10 days, XRPD) | high-temperature stability of the crystal form [1, 6] | weight increase due to moisture absorption [5] [%] | light stability of the crystal form [2, 6] | high-humidity stability 2 of the crystal form [3, 6] | high-humidity stability 1 of the crystal form [4, 6]
COC(=O)/C=C/C(=O)OCCN1C(=O)CCC1=O [crystal form A, 2-(2,5-dioxopyrrolidin-1yl)ethyl methyl fumarate] | good high-temperature stability | good light stability | good high-humidity stability | good high-humidity stability |  |  |  |  | 
COC(=O)/C=C/C(=O)OCCN1C(=O)CCC1=O [crystal form I, 2-(2,5-dioxopyrrolidin-1yl)ethyl methyl fumarate] |  |  |  |  | unstable under high temperatures and easily transforms into crystal form A | 0.642 | unstable under lights and easily transforms into crystal form A | unstable under high humidity and easily transforms into crystal form A | unstable under high humidity and easily transforms into crystal form A
